Among the data in BindingDB's records for doi:10.1016/s0960-894x(01)00543-1 (Harvard Medical School, 2001) are Ki values, retold here.

One may read the pKi as −log10 of the Ki, conventionally taken in molar units. Low readings indicate a high Ki, high ones a low Ki.

A short description of the test: Binding affinity towards Opioid receptor delta 1 in guinea pig brain membranes using [3H]naltrindole as radioligand.

pKi: −log10 of the molar value.

Consider `Oc1ccc2c(c1)C[C@@H]1[C@@H]3CCCCC23CCN1CCC(O)c1cccs1` (stereo partly specified) [MCL-122], for which the pKi is 6.96.

Take `N#CCCCN1CCC23CCCC[C@H]2[C@H]1Cc1cc(O)ccc13` [3-[5-hydroxy-(1R,9R,10R)-17-azatetracyclo[7.5.3.01,10.02,7]heptadeca-2(7),3,5-trien-17-yl]propyl cyanide]: the pKi was 8.51.

For the molecule `Oc1ccc2c(c1)C[C@@H]1[C@@H]3CCCCC23CCN1CCc1ccccc1` [17-phenethyl-(1R,9R,10R)-17-azatetracyclo[7.5.3.01,10.02,7]heptadeca-2(7),3,5-trien-5-ol], the pKi is 8.51.

For the molecule `Oc1ccc2c(c1)C[C@@H]1[C@@H]3CCCCC23CCN1CCOc1ccccc1` [MCL-127], the pKi was 7.48.

Turning to `Oc1ccc2c(c1)C[C@@H]1[C@@H]3CCCCC23CCN1CC1CCCCC1` [17-(N-cyclohexylmethyl)-(1R,9R,10R)-17-azatetracyclo[7.5.3.01,10.02,7]heptadeca-2(7),3,5-trien-5-ol], the negative-log Ki (pKi) is 7.16.

As to `Oc1ccc2c(c1)C[C@@H]1[C@@H]3CCCCC23CCN1CCCF` [17-(3-fluoropropyl)-(1R,9R,10R)-17-azatetracyclo[7.5.3.01,10.02,7]heptadeca-2(7),3,5-trien-5-ol], the negative-log Ki (pKi) is 9.07.

Molecule `CC(C)CN1CCC23CCCC[C@H]2[C@H]1Cc1cc(O)ccc13` [MCL-108] had a negative logarithm of the Ki (pKi) of 8.25.

On to `N#CCCN1CCC23CCCC[C@H]2[C@H]1Cc1cc(O)ccc13` [2-[5-hydroxy-(1R,9R,10R)-17-azatetracyclo[7.5.3.01,10.02,7]heptadeca-2(7),3,5-trien-17-yl]ethyl cyanide], for which the pKi is 8.59.

Regarding `Oc1ccc2c(c1)C[C@@H]1[C@@H]3CCCC[C@]23CCN1C/C=C/I`, the negative-log Ki (pKi) was 7.57.

Turning to `CCOCCN1CCC23CCCC[C@H]2[C@H]1Cc1cc(O)ccc13` [17-(2-ethoxyethyl)-(1R,9R,10R)-17-azatetracyclo[7.5.3.01,10.02,7]heptadeca-2(7),3,5-trien-5-ol], the negative-log Ki (pKi) was 8.25.

The molecule `Oc1ccc2c(c1)C[C@@H]1[C@@H]3CCCCC23CCN1CCC(F)(F)F` [17-(3,3,3-trifluoropropyl)-(1R,9R,10R)-17-azatetracyclo[7.5.3.01,10.02,7]heptadeca-2(7),3,5-trien-5-ol] showed a pKi of 7.57.

In turn, `C=CCN1CCC23CCCC[C@H]2[C@H]1Cc1cc(O)ccc13` [17-allyl-(1R,9R,10R)-17-azatetracyclo[7.5.3.01,10.02,7]heptadeca-2(7),3,5-trien-5-ol] had a pKi of 8.39.

In turn, `Oc1ccc2c(c1)C[C@@H]1[C@@H]3CCCCC23CCN1Cc1ccccc1` [17-benzyl-(1R,9R,10R)-17-azatetracyclo[7.5.3.01,10.02,7]heptadeca-2(7),3,5-trien-5-ol] gave a negative logarithm of the Ki (pKi) of 6.38.

Turning to `O=C(CCN1CCC23CCCC[C@H]2[C@H]1Cc1cc(O)ccc13)c1ccccc1` [3-[5-hydroxy-(1R,9R,10R)-17-azatetracyclo[7.5.3.01,10.02,7]heptadeca-2(7),3,5-trien-17-yl]-1-phenyl-1-propanone], the pKi was 7.64.

In turn, `Oc1ccc2c(c1)C[C@@H]1[C@@H]3CCCCC23CCN1CCC(O)c1ccccc1` (stereo partly specified) [MCL-121] had a pKi of 6.89.

`Oc1ccc2c(c1)C[C@@H]1[C@@H]3CCCCC23CCN1CCC(O)c1ccco1` (stereo partly drawn) [1-(2-furyl)-3-[5-hydroxy-(1R,9R,10R)-17-azatetracyclo[7.5.3.01,10.02,7]heptadeca-2(7),3,5-trien-17-yl]-1-propanol] showed a pKi of 7.54.

Take `Oc1ccc2c(c1)C[C@@H]1[C@@H]3CCCCC23CCN1Cc1ccco1` [MCL-119]: the negative logarithm of the Ki (pKi) is 8.07.

In turn, `Oc1ccc2c(c1)C[C@@H]1[C@@H]3CCCCC23CCN1CC1CCCC1` [17-cyclopentylmethyl-17-azatetracyclo[7.5.3.01,10.02,7]heptadeca-2(7),3,5-trien-5-ol] showed a negative logarithm of the Ki (pKi) of 8.16.

On to `O=C(CCN1CCC23CCCC[C@H]2[C@H]1Cc1cc(O)ccc13)c1cccs1` [3-[5-hydroxy-(1R,9R,10R)-17-azatetracyclo[7.5.3.01,10.02,7]heptadeca-2(7),3,5-trien-17-yl]-1-(2-thienyl)-1-propanone], for which the negative-log Ki (pKi) was 8.00.

Turning to `COCCN1CCC23CCCC[C@H]2[C@H]1Cc1cc(O)ccc13` [MCL-110], the pKi is 9.27.

`O=C(CCN1CCC23CCCC[C@H]2[C@H]1Cc1cc(O)ccc13)c1ccco1` [1-(2-furyl)-3-[5-hydroxy-(1R,9R,10R)-17-azatetracyclo[7.5.3.01,10.02,7]heptadeca-2(7),3,5-trien-17-yl]-1-propanone] showed a pKi of 7.38.
